Reference: patent publication US11136325B2, “Pyrrolopyrimidine and pyrrolopyridine derivatives” (GALAPAGOS NV, priority 2017, dated 2021)

Test system: ASK1/2 (phospho-MKK3 in H2O2-stimulated PBMCs)
Experiment: ASK1/2 cellular assay: phospho-MKK3 in H2O2-stimulated PBMCs, western blot
Format: cell-based
Settings: PBMC, 0.5 h, 3 mM H2O2, 30 min, read-out: Inhibition (pIC50) (converted)
Protocol: ASK1/2 activity in vitro was assayed by determining the quantity of phospho-MKK3 protein in H2O2-stimulated PBMCs, using western blot method.
• Lymphoprep (Axis-Shield, Cat. No. 1114545) • Ammonium chloride lysate buffer pH 7.4 (10× concentrated): • NH4Cl—final conc. 1.5 M (Kemika, Cat. No. 0137407) • NaHCO3— final conc. 100 mM (Kemika, Cat. No. 1411007) • Na2EDTA—final conc. 10 mM (Sigma Aldrich; Cat. No. E-4884) • RPMI 1640 (Lonza Cat. No. BE12-115F/U1) • FBS (Sigma Cat. No. F7524, heat inactivated 30′/56° C.) • Dimethyl sulfoxide (DMSO) (Sigma, Cat. No. D2650) • Cell lysis buffer (pH 7.4): PBS+1% Triton X-100 (Sigma Aldrich; Cat. No. X100)—10 ml • Phospho-Stop—1 tablet (Sigma, Cat. No. 4693124001) • Protease Inhibitor—1 tablet (Sigma, Cat. No. 4906837001) • Hydrogen peroxide solution 3% w/w (Sigma Aldrich, Cat. No. H-6520) • PBS (Sigma Aldrich, Cat. No. P4417-100TAB) • Microplate, 96 well, pp, v-bottom, clear (Greiner bio-one; Cat. No. 651201) • Tissue culture plate, 6 well, flat bottom with low evaporation lid (Falcon, Cat. No. 353224) • 50 mL falcon tube (TPP, Cat. No. 91050) • Pierce BCA Protein Assay Kit (Thermo Scientific, Cat. No. 23225) • Immulon® Microtiter™ 96-Well Plate 1B (Thermo Scientific, Cat. No. 3355) • Wes 12-230 kDa Master Kit (Protein Simple, Cat. No. PS-MK14) • MKK3 (D4C3) Rabbit mAb (Cell Signaling, Cat. No. 8535) • Phospho-MKK3 (Ser189)/MKK6 (Ser207) (D8E9) Rabbit mAb (Cell Signaling, Cat. No. 12280)
The assay was configured to run using the following conditions: Tested compounds concentration range: 1-0.0014 μM (7 three-fold serial dilutions); H2O2 concentration: 3 mM
To isolate the PBMCs from buffy coat, the buffy coat was diluted 1:1 in PBS, then the dilute buffy-coat (25 mL) was carefully pipetted on top of 20 mL of Lymphoprep in a falcon tube. The tubes were then spun for 35 min at 400×g. The upper plasma layer is then carefully removed leaving the layer containing the MNCs. The layer containing the MNCs is then transferred to a new tube, PBS is added up to a total volume of 50 mL and the tube is then spun for 10 minutes (200×g, 25° C.). The resulting pellet is then resuspended in 2 mL PBS, the washing step was repeated. The final pellets were resuspended in ammonium chloride lysate buffer up to 50 mL, mixed gently and centrifuged for 10 minutes (200×g, 25° C.), resuspended in 2-3 mL of cell medium and diluted up to 50 mL in cell medium. The cell density of a 1/20 dilution in cell medium was determined using an automated cell counter.
10×10^6 PBMCs were seeded per well in 1 mL of RPMI 1640 cell medium supplemented with 10% FBS in 6-well plates. Seven sets of three-fold serial dilutions of compounds in DMSO starting from 1 mM in 96-well v-bottom plate were prepared. The DMSO compound solutions were diluted 100× in the cell medium. 200 μL of 100× diluted compound solution were added per well, control wells contained 200 μL of 1% DMSO prepared in cell medium. 7.5 mM H2O2 in cell medium was prepared and 800 μL was added to each well, except the negative control well to which 800 μL of cell medium was added. The cells were incubated for 30 min at 37° C., 5% CO2, 95% humidity. The cells were transferred to 2 mL Eppendorf tubes and centrifuged for 10 minutes at 300×g at 4° C., they were then washed with 1 mL PBS, the cell pellet was resuspended in 100 μL of lysis buffer and incubated on ice for 30 minutes. After which time the cell lysates were centrifuged for 5 minutes at 10000×g at 4° C. and the supernatants were then stored at −20° C.
Samples were diluted 5× in cell lysis buffer and total protein concentration was determined in 96-well Immulon 1B plate using BCA Protein Assay Kit following manufacturer's instructions.
Western blot assay was performed using Protein Simple Wes Master Kit and device, following manufacturer's instructions. 0.5 mg/mL of total proteins was loaded per sample; phospho-MKK3 and MKK3 antibodies were diluted 300×. […]

Q: Which IC50 does the source give for `Cc1cnc(N)cc1C(=O)NC1CCN(c2ncnc3[nH]cc(C)c23)CC1` [Compound 2, 2-amino-5-methyl-N-[1-(5-methyl-7H-pyrrolo[2,3-d]pyrimidin-4-yl)-4-piperidyl]pyridine-4-carboxamide] here?
A: 3.16 nM

Q: Which IC50 does the source give for `Nc1cc(C(=O)NC2CCN(c3ccnc4[nH]cc(Cl)c34)CC2)c(F)cn1` [Compound 7, 2-amino-N-[1-(3-chloro-1H-pyrrolo[2,3-b]pyridin-4-yl)-4-piperidyl]-5-fluoro-pyridine-4-carboxamide] here?
A: 12.6 nM

Q: For `Nc1cc(C(=O)NC2CCN(c3ncnc4[nH]cc(Cl)c34)CC2)ccn1` [Compound 4, 2-amino-N-[1-(5-chloro-7H-pyrrolo[2,3-d]pyrimidin-4-yl)-4-piperidyl]pyridine-4-carboxamide], which IC50 is on record?
A: 7.94 nM

Q: Which IC50 does the source give for `Cc1c[nH]c2ncc(C#N)c(N3CCC(NC(=O)c4cc(N)ncc4F)CC3)c12` [Compound 6, 2-amino-N-[1-(5-cyano-3-methyl-1H-pyrrolo[2,3-b]pyridin-4-yl)-4-piperidyl]-5-fluoro-pyridine-4-carboxamide] here?
A: 12.6 nM

Q: With `Nc1cc(C(=O)NC2CCN(c3ncnc4[nH]cc(Cl)c34)CC2)c(F)cn1` [Compound 5, 2-amino-N-[1-(5-chloro-7H-pyrrolo[2,3-d]pyrimidin-4-yl)-4-piperidyl]-5-fluoro-pyridine-4-carboxamide] as the compound, how does the IC50 read?
A: 6.31 nM

Q: With `Cc1c[nH]c2ncnc(N3CCC(NC(=O)c4cc(N)ncc4Cl)CC3)c12` [Compound 3, 2-amino-5-chloro-N-[1-(5-methyl-7H-pyrrolo[2,3-d]pyrimidin-4-yl)-4-piperidyl]-pyridine-4-carboxamide] as the compound, how does the IC50 read?
A: 39.8 nM

Q: Which IC50 does the source give for `Cc1c[nH]c2ncnc(N3CCC(NC(=O)c4cc(N)ncc4F)CC3)c12` [Compound 1, 2-amino-5-fluoro-N-[1-(5-methyl-7H-pyrrolo[2,3-d]pyrimidin-4-yl)-4-piperidyl]pyridine-4-carboxamide] here?
A: 8.91 nM
